From patent US20230346765A1, “METHODS OF TREATING XANTHINE OXIDASE-RELATED DISEASES WITH NIFLUMIC ACID AND DERIVATIVES THEREOF” (Baylor College of Medicine, priority 2020, published 2023)
pIC50, pKi: −log10 of the molar value. Entries after “also recorded” stand apart in the source; their conditions may differ.

Assays:
[1] = test system: allantoxanamide-treated mice; test: Hypouricemic effect in allantoxanamide induced hyperuricemic mice (Example 3); format: in vivo, C57BL/6 mice; conditions: 50 mg/kg oral gavage once; 1.5, 3 and 23 hours; p<0.05
Protocol: A hyperuricemia mouse model was used. Allantoxanamide, a potent uricase inhibitor, was used to induce hyperuricemia in mice in this study. Briefly, adult C57BL/6 mice (15-25 g. 6-8 weeks old) were injected intraperitoneally (i.p.) with allantoxanamide at 100 mg/kg or 200 mg/kg in 0.5% sodium carboxymethyl cellulose (CMC-Na) in a volume of 0.1 ml/10 g mouse body weight, to increase the serum uric acid level. The mice then received the test compound morniflumate at a concentration of 50 mg/kg in 1.0% polyethylene glycol 400 (PEG400 in a volume of 0.1 ml/10 g mouse body weight), via oral gavage. Positive control mice received allopurinol at the same concentration as test compound after i.p. injection of allantoxanamide. The negative control mice received PEG400 only after i.p, injection of allantoxanamide. Blood samples were collected through the facial vein at 1,5 hours, 3 hours, and 23 hours after the oral gavage. The blood was allowed to clot for 1 hour at room temperature and then centrifuged at 2350×g for 4 minutes to obtain serum. The serum was kept on ice and assayed immediately. Serum uric acid was determined using the phosphotungstate method, as known to those of skill in the art.

[2] = test system: allantoxanamide-treated mice; test: Serum uric acid in acute hyperuricemia mouse model, allantoxanamide-treated (Example 4); format: in vivo, C57BL/6 mice; conditions: 50 mg/kg oral gavage once
Protocol: Adult C57BL/6 mice (15-25 g, 6-8 weeks old) were injected intraperitoneally (i.p.) with allantoxanamide at 100 mg/kg in 0.5% sodium carboxymethyl cellulose (CMC-Na) in a volume of 0.1 ml/10 g mouse body weight, to increase the serum uric acid level. Then the mice received a test compound at a concentration of 50 mg/kg in 1.0% polyethylene glycol 400 (PEG-400 in a volume of 0.1 ml/10 g mouse body weight), via oral gavage. Positive control mice received allopurinol at the same concentration as the test compound after i.p. injection of allantoxanamide. The negative control mice received PEG400 only after i.p. injection of allantoxanamide. Blood samples were collected through facial vein at 3 hours and 23 hours after the oral gavage (one time treatment). The blood was allowed to clot for 1 hour at room temperature and then centrifuged at 2350×g for 4 minutes to obtain serum. The serum was kept on ice and assayed immediately. Serum uric acid was determined using the phosphotungstate method, as known to those of skill in the art.
Allopurinol was used as a positive control. Allantoxanamide is a potent uricase inhibitor. […] Animal numbers used in this experiments [Negative control (baseline)=11; allantoxanamide=10, allopurinol (positive control)=4; niflumic acid=6; NFA-impurity E=6; talniflumate=6 and ethylniflutnate=6].

uricase −/− mice [3] = test: Serum uric acid in chronic hyperuricemia model, drug in drinking water; format: in vivo
Protocol: Serum uric acid (SUA) levels in uricase −/− mice were used to probe the effects of treatment with drinking water containing allopurinol, DHNB, and niflumic acid (NFA). Under the maintenance of allopurinol, adult uricase−/− mice show relatively low SUA (2-4 mg/dL). […] For the current experiments, the allopurinol water was stopped and normal water was supplied to uricase−/− mice for one week; and then uricase−/− mice were treated with DHNB (150 mg/L) or NFA (150 mg/L) in drinking water. Additionally, uricase−/− mice were given allopurinol (150 mg/L) as a positive control, while normal water was given for a negative control. All drug/waters were refreshed every week. Serum uric acid (SUA) levels of treated and control mice were determined 1-2 weeks, 4-6 weeks or 8-10 weeks after the treatment (see FIG. 10). Mouse blood (100˜200 μL) was taken via facial vein at the scheduled time point. The blood was allowed to clot for 1 hour at room temperature and then centrifuged at 2350 g for 4 minutes to obtain serum. The serum was kept on ice and assayed immediately by the tungsten phosphate method, as known to those of skill in the art.

uricase −/− mice [4] = test: Serum uric acid in chronic hyperuricemia model, drug in solid chow diet; format: in vivo; conditions: for SUA: 250 mg/Kg food, 6-8 weeks; for SUA levels versus regular chow control: 250 mg/kg food, 6 to 8 weeks, p<0.001
Protocol: An analogous study was performed to investigate the effects on SUA in uricase −/− mice treated with solid chow diet formulated with NFA, DHNB, and allopurinol. NFA, DHNB or allopurinol was formulated into solid chow diet (250 mg/kg food, LabDiet® 5V5R, ½″ pellet; Irradiated) from the company (Test Diet, St. Louis, MO and Lab Supply, Inc). Allopurinol water was stopped for uricase−/− mice, while normal water was supplied during experiments. Uricase−/− mice (1-2 months age, male and female), were given special solid chow die including NFA, DHNB or allopurinol (250 mg/kg food). In separate mice, special solid chow diet containing allopurinol (250 mg/kg food) was given for a positive control and regular solid chow diet was given for a negative control. Blood samples were obtained and processed at 6 or 8 weeks after the treatment (see FIG. 11). Serum uric acid was determined using the tungsten phosphate method.

[5] = target: T1, Xanthine oxidase from bovine milk (Bos taurus, UniProt P80457); test: XO inhibition assay, cell-free, spectrophotometric monitoring of uric acid formation at 295 nm; format: biochemical; conditions: for type of inhibition / pKi: Lineweaver-Burk plot; for pKi: read-out: inhibitor constant (Ki); for inhibition of XO compared among 25 compounds and with allopurinol: each compound at 20 μM; for Vmax of XO: in the presence of different concentrations of the inhibitor; for initial rate of uric acid formation with longer pre-incubation times with XO: pre-incubated with XO for varying times, then xanthine added
T1 construct: Xanthine oxidase from bovine milk; purchased Sigma Chemical Co. (St. Louis, MO); host or cells: bovine milk
T1 sequence (P80457 whole entry): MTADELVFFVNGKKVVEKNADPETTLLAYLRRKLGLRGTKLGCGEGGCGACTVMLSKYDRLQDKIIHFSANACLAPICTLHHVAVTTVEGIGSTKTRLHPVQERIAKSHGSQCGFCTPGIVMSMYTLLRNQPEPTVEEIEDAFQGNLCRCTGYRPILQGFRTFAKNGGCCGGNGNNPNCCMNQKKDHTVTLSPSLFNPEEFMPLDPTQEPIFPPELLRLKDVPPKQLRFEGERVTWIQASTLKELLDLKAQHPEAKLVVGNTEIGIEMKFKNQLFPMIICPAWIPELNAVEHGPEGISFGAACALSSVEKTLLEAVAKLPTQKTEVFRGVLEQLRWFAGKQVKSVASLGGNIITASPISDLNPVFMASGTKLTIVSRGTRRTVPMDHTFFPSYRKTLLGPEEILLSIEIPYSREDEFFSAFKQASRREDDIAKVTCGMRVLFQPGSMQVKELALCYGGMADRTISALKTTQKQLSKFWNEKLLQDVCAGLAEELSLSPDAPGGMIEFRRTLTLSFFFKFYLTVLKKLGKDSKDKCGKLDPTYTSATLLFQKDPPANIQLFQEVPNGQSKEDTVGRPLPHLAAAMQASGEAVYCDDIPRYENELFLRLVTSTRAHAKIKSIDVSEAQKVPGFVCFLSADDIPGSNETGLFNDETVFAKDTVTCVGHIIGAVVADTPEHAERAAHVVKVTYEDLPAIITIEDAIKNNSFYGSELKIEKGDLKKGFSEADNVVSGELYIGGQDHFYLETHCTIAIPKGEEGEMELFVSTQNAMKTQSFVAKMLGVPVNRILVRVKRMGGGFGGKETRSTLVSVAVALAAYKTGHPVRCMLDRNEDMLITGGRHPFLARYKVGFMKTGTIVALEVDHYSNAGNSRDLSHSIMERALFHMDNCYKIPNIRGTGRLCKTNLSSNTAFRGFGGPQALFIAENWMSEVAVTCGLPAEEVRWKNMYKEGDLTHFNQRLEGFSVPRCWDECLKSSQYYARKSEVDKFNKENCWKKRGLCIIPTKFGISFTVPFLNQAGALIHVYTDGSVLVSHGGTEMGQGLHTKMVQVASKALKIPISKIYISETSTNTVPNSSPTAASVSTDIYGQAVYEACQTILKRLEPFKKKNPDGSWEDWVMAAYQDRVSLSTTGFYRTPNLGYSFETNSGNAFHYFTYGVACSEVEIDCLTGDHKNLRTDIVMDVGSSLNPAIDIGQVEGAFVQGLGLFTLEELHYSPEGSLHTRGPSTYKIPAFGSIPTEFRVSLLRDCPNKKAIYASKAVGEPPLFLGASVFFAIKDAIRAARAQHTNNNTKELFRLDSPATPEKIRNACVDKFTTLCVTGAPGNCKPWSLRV
Source text: Xanthine oxidase from bovine milk, xanthine, allopurinol, niflumic acid (NFA), ethyl niflumate, 2-(3-chloro-5-(trifluoromethyl)-2-pyridylthio)pyridine-3-carboxylic acid, 2-[3-(trifluoromethyl)phenoxy]nicotinic acid, clonixin, flunixin, flufenamic acid, indomethacin, naproxen, diclofenac, aspirin, ibuprofen, talniflumate, 6-phenylamino-nicotinic acid, 2-phenylamino-nicotinic acid, N-phenylanthranilic acid, mefenamic acid, tolfenamic acid, meclofenamic acid, floctafenic acid, and dimethyl sulfoxide (DMSO) were obtained from Sigma Chemical Co. (St. Louis, MO). Morniflumate was purchased from Toronto Research Chemicals, Inc. (North York, Canada).
The uric acid absorbance at 295 nm was followed and the intensity data were collected every 30 seconds for 10 minutes. The initial rate of uric acid formation was generated for the reaction and converted to XO activity as 100% without any inhibitor (negative control). The inhibitory effect of NFA on XO activity was calculated as compared with the negative control (DMSO).
The formation of uric acid during the oxidation of xanthine by XO in the absence of NFA was recorded (see FIG. 2A). Uric acid formation was monitored as the absorbance at 295 nm over a period of 0-10 minutes during the oxidation of xanthine. The corresponding data were recorded for the oxidation of xanthine by XO in the presence of 10 μM NFA over a period of 0-10 minutes (see FIG. 2B).
Enzyme kinetics analysis of NFA—The inhibition kinetics of NFA on XO was determined by using the Lineweaver-Burk plot (see FIG. 3A). […] The maximum velocity (Vmax) and Michaelis-Menten constant of XO were determined in the presence of different concentrations of NFA (see FIG. 3B).
Dose-dependent effects—The dose-dependent effects on XO inhibition by NFA, NFA impurity E (labeled as “Impurity E”), flunixin, clonixin, and flufenamic acid were studied (see FIG. 5). Varying concentrations (0-40 μM) of each compound were pre-incubated with 20 nM of XO. Allopurinol was used as a positive control and DMSO was used as a negative control.
The inhibition kinetics of NFA impurity E on XO was determined by using the Lineweaver-Burk plot (see FIG. 7A). […] The maximum velocity (Vmax) and Michaelis-Menten constant of XO was determined in the presence of different concentrations of NFA […] (see FIG. 7B).
XO (20 nM) was pre-incubated with NFA, allopurinol or a combination of NFA and allopurinol for 1 minute in a phosphate buffer ([…] pH 7.2), followed by the addition of […] xanthine to start the reaction. XO activity was analyzed by measuring the production of uric acid.

[6] = Stability of NFA during pre-incubation with XO (absorbance at 287 nm); format: physicochemical; conditions: incubated with XO for 0 to 47 hours
[7] = 150 mg/L in drinking water, 1-2 weeks
[8] = 150 mg/L in drinking water, 4-6 weeks
[9] = 150 mg/L in drinking water, 8-10 weeks

| SMILES | SUA levels versus allantoxanamide control ([2]; 3-hour time point) | SUA levels versus allantoxanamide control ([2]; 23-hour time point) | SUA (uricase −/− mice [3]; [7]) [mg/dL] | SUA (uricase −/− mice [3]; [8]) [mg/dL] | SUA (uricase −/− mice [3]; [9]) [mg/dL] | SUA (uricase −/− mice [4]) [mg/dL] | SUA levels versus regular chow control (uricase −/− mice [4]) | other results |
| --- | --- | --- | --- | --- | --- | --- | --- | --- |
| Oc1ncnc2[nH]ncc12 [Allopurinol, allopurinol] | significantly reduced SUA levels | significantly reduced SUA levels | 3.34 ± 0.87 | 3.45 ± 0.49 | 4.28 ± 0.80 | 4.33 ± 1.15 | significantly reduced SUA levels | SUA levels versus allantoxanamide control [1]: significantly reduced SUA levels; SUA under maintenance of allopurinol (uricase −/− mice [3]; adult uricase−/− mice, maintenance allopurinol water): 2 to 4 mg/dL |
| O=Cc1cc(O)c(O)c([N+](=O)[O-])c1 [DHNB, 3,4-dihydroxy-5-nitrobenzaldehyde] | – | – | 5.37 ± 1.06 | 5.73 ± 0.76 | 5.76 ± 0.81 | 5.91 ± 1.30 | significantly reduced SUA levels | – |
| O=C(O)c1ccc(Nc2cccc(C(F)(F)F)c2)nc1 [NFA impurity E] | significantly reduced SUA levels | significant effect | – | – | – | – | – | dose-dependent XO inhibition, rank ([5]; 0-40 μM pre-incubated with 20 nM XO): most potent amongst each of the compounds tested; type of inhibition [5]: mixed-type inhibition; pKi [5]: 7.52; inhibition of XO compared among 25 compounds and with allopurinol [5]: most potent inhibitor amongst the compounds tested; also recorded: most effectively inhibit XO activity; Vmax of XO [5]: 0.044 µM/s; initial rate of uric acid formation with longer pre-incubation times with XO [5]: did not change |
| O=C(O)c1cccnc1Nc1cccc(C(F)(F)F)c1 [Niflumic acid, niflumic acid] | significantly reduced SUA levels | significant effect | 5.47 ± 1.21 | 6.50 ± 0.64 | 3.89 ± 0.20 | 5.17 ± 1.28 | significantly reduced SUA levels | effect of pre-incubation with XO on stability [6]: no effect on the stability; pIC50 ([5]; 20 nM XO, read-out: IC50, inhibitory effect on XO activity): 5.56; type of inhibition [5]: mixed-type inhibition; pKi [5]: 6.43; relative enzymatic activity ([5]; at 20 μM): approximately 20%; XO relative activity ([5]; at lower concentrations (≤3.3 μM)): 45%; inhibition of XO compared among 25 compounds and with allopurinol ([5]; listed as NFA): inhibitory effect similar to that of allopurinol; also recorded: most effectively inhibit XO activity; Vmax of XO [5]: 0.04 µM/s; initial rate of uric acid formation with longer pre-incubation times with XO [5]: did not change; SUA levels versus control mice (uricase −/− mice [3]; 150 mg/L in drinking water, all three time points, p<0.001): significantly reduced SUA levels |
| CCOC(=O)c1cccnc1Nc1cccc(C(F)(F)F)c1 [ethylniflumate, ethyl niflumate] | significantly reduced SUA levels | – | – | – | – | – | – | – |
| Cc1c(Nc2ncccc2C(=O)O)cccc1C(F)(F)F [flunixin] | – | – | – | – | – | – | – | inhibition of XO compared among 25 compounds and with allopurinol [5]: decreased its XO inhibitory activity |
| O=C(OCCN1CCOCC1)c1cccnc1Nc1cccc(C(F)(F)F)c1 [morniflumate, Morniflumate] | – | – | – | – | – | – | – | SUA levels versus allantoxanamide control [1]: significantly reduced SUA levels |
| O=C1OC(OC(=O)c2cccnc2Nc2cccc(C(F)(F)F)c2)c2ccccc21 (centres unmarked) [talniflumate] | significantly reduced SUA levels | significant effect | – | – | – | – | – | – |
